According to patent EP1306084A1, “Compositions for the control of parasitic infestations in fish” (Alpharma AS, priority 1998, dated 1999):

How the values were obtained:
[1] = system: sea lice; test: Oral or bath treatment in freshwater before sea transfer, sea lice counts after natural infestation (Example 6); assay type: in vivo, Atlantic salmon (Salmo salar)
Experimental: (§1) The treatment dosage was 9 mg hexaflumuron per kg fish per day for 10 days. This is indicated by "Groups/Timepoints" in the figure; • Figure 2 relates to the trial in Example 2 that was carried out on Atlantic salmon (Salmo salar). […] The treatment dosage varied between 3 - 9 mg hexaflumuron and 9- 12 mg fluazuron per kg fish per day for 7 days. This is indicated by "Groups/Timepoints" in the diagram. […] The treated groups are compared to an untreated control group. The treatment dosage was 4 mg hexaflumuron per kg fish per day for 5 days. This is indicated by "Groups/Timepoints" in the figure. Cage 2 = controls, Cage 4-6 = treated groups, 16.6.97 = time point for sea transfer and 5.8.97= controls treated by bathing with deltamethrin; • Figure 4 relates to the trial described in Example 5, which was carried out on sea trout (Salmo trutta). […] The treated groups are compared with an untreated control group. The dosage for oral treatment was 4 mg hexaflumuron per kilo fish per day for 5 days, and 5 ppm hexaflumuron as a 30 minute bath treatment. This is indicated by "Groups/Timepoints" in the figure. Cage 1.4 = Controls, cage 1.3 = Oral treatment, cage 1.2 = Bath treatment. […] The treated groups are compared with an untreated control group, and one group that has been treated orally with teflubenzuron (10 mg/kg of teflubenzuron per kg fish per day for 7 days). The dosage for oral treatment was 5.6 mg hexaflumuron per kg fish per day for 7 days, and 5 ppm hexaflumuron as a 30 minute bath treatment. […] End of treatment: 22.10.97, Sea transfer: 23.10.97. T1 = 3 weeks post end of treatment, T2 = 5 weeks post end of treatment, T3 = 9 weeks post end of treatment, T4 = 12 weeks post end of treatment; • Figure 6 relates to the trial in Example 6 at time points 4-6, with the same trial parameters as for Figure 5. T5 = 15 weeks post end of treatment, T6 = 17 weeks post end of treatment. Cage 3 and 4 were treated by bath with deltamethrin after sea lice counting at T4 (12.01.98); • Figure 7 relates to the trial described in Example 7 where salmon were injected on 17.12.97 with two formulations (groups L and R, respectively) of hexaflumuron and a vaccine formulation without hexaflumuron (control). […] The vaccinated fish was transferred to sea water on 09.01.98; • Figure 8 summarises the trial of Example 8 where salmon smolts were injected with 9 different active substances on 08.07.98. Only results for Moxidectin (Mox.), Lufenuron (Luf.) and hexaflumuron in Apoject 1-Fural (Hex.Apo) and in animal oil (Hex.oil) are shown, and • Figure 9 summarises the trial described in Example 10 where salmon were injected on 03.12.97 with 3 different formulations of hexaflumuron (Hexa 1, Hexa 2 and Hexa 3). The fish were transferred to sea water at T0.
About 400 Atlantic salmon (Salmo salar) of an average weight of 80 grams were divided into four groups of 100 fish in each. One group was given an oral treatment of 5.6 mg hexaflumuron per kg fish each day for 7 days before sea transfer. Group two was given a bath treatment with a dosage of 5 ppm (mg/l) hexaflumuron for 30 minutes with a formulation containing 10% hexaflumuron. Group three was given oral treatment with a daily dosage of 10 mg teflubenzuron per kg fish for 7 days, while the last group remained untreated. […] Every third week, lice from 10 fish in each cage were counted to assess if there was a difference in the number of lice between the cages. […]

[2] = system: sea lice; test: Oral treatment in freshwater before sea transfer, sea lice counts after natural infection (Example 4); assay type: in vivo, salmon (Salmo salar); details: bath treatment, 7 weeks into the trial
Experimental: (§2) The treatment dosage was 9 mg hexaflumuron per kg fish per day for 10 days. This is indicated by "Groups/Timepoints" in the figure; • Figure 2 relates to the trial in Example 2 that was carried out on Atlantic salmon (Salmo salar). […] The treatment dosage varied between 3 - 9 mg hexaflumuron and 9- 12 mg fluazuron per kg fish per day for 7 days. This is indicated by "Groups/Timepoints" in the diagram. […] The treated groups are compared to an untreated control group. The treatment dosage was 4 mg hexaflumuron per kg fish per day for 5 days. This is indicated by "Groups/Timepoints" in the figure. Cage 2 = controls, Cage 4-6 = treated groups, 16.6.97 = time point for sea transfer and 5.8.97= controls treated by bathing with deltamethrin; • Figure 4 relates to the trial described in Example 5, which was carried out on sea trout (Salmo trutta). […] The treated groups are compared with an untreated control group. The dosage for oral treatment was 4 mg hexaflumuron per kilo fish per day for 5 days, and 5 ppm hexaflumuron as a 30 minute bath treatment. This is indicated by "Groups/Timepoints" in the figure. Cage 1.4 = Controls, cage 1.3 = Oral treatment, cage 1.2 = Bath treatment. […] The treated groups are compared with an untreated control group, and one group that has been treated orally with teflubenzuron (10 mg/kg of teflubenzuron per kg fish per day for 7 days). The dosage for oral treatment was 5.6 mg hexaflumuron per kg fish per day for 7 days, and 5 ppm hexaflumuron as a 30 minute bath treatment. […] End of treatment: 22.10.97, Sea transfer: 23.10.97. […]
About 2,500 salmon (Salmo salar) of average weight 42 grams were treated orally with a daily dosage of 4 mg hexaflumuron per kilo fish for 5 days. […] The number of lice on 10 fish from each cage were counted every third week to check if there was any difference in the number of lice in the cages. […]

[3] = system: sea lice; test: Oral or bath treatment in freshwater before sea transfer, sea lice counts after natural infection (Example 5); assay type: in vivo, sea trout (Salmo trutta); details: bath treatment 2, 5 and 8 weeks after sea transfer
Experimental: as §2, with “23.10.97. T1 = 3 weeks post end of treatment, T2 = 5 weeks post end of treatment, T3 = 9 weeks post end of treatment, T4 = 12 weeks post end of treatment; • Figure 6 relates to the trial in Example 6 at time points 4-6, with the same trial parameters as for Figure 5.” for “23.10.97.”
About 300 sea trout (Salmo trutta) of an average weight of 160 grams were divided into three groups of 100 fish each. […] Lice from 6-10 fish from each cage were counted every third week to assess whether there was any difference in the number of lice between the cages. […]

[4] = system: sea lice; test: Injection of 9 active substances, protective effect against sea lice (Example 8); assay type: in vivo, salmon smolt
Experimental: as §1
In this trial 9 different active substances were tested for protective effect against sea lice. 1,200 salmon smolt were, prior the start of the trial, vaccinated with a commercial vaccine, ALPHA JECT 5100.
One week after sea water transfer the salmon was divided into 12 groups and injected with different formulations of the 9 different active substances. In parallel with the 12 groups, a 13th group comprising 50 fish of the same origin and size was injected with a saline (PBS) solution without active substance. This group served as negative control/reference group in respect of sea lice infestations. The groups were marked by fin cutting and distributed randomly into 3 cages.
The active substances that were used as injection were hexaflumuron, buprofezin, diflubenzuron, fluazuron, lufenuron, ivermectin, doramectin, moxidectin and milbemycin oxime, respectively. All the fish were injected with 0.2 ml of the various injection formulations. Hexaflumuron, buprofezin, fluazuron, lufenuron and diflubenzuron were administered at a dosage of about 50 mg/kg whereas ivermectin, doramectin and moxidectin were administered at a dosage of 0.2 mg/kg (recommended dosage for mammals). […]

[5] = system: sea lice; test: Oral treatment (coated feed / Akvaletter) of naturally sea lice infected salmon in minicages (Example 2); assay type: in vivo, Atlantic salmon (Salmo salar); details: fluazuron groups, 9.0-12.0 mg per day, 7 days
Experimental: as §1, with “T0. […]” for “T0.”

In the case of CC1(C)[C@H](C(=O)O[C@H](C#N)c2cccc(Oc3ccccc3)c2)[C@@H]1C=C(Br)Br [deltamethrin, reference compound], the “bath treatment of control and teflubenzuron groups, number of lice” value ([1]; bath treatment after T4) was “successful”, the “bath treatment of control fish to reduce the number of pre-adult lice” value [2] was “successful” and the “bath treatment of control fish, number of lice” value [3] was “successful”.
In the case of O=C(NC(=O)c1c(F)cccc1F)Nc1ccc(Cl)cc1 [diflubenzuron, reference compound], the “protection against new establishments by sea lice” value ([4]; summary statement referring to Example 8) was “do not protect”.
For O=C(NC(=O)c1c(F)cccc1F)Nc1ccc(Cl)c(Oc2ncc(C(F)(F)F)cc2Cl)c1 [fluazuron, reference compound], the “reduction as compared to the control group” value [5] was 25%.
With O=C(NC(=O)c1c(F)cccc1F)Nc1cc(Cl)c(OC(F)(F)C(F)C(F)(F)F)cc1Cl (centres unmarked) [lufenuron, reference compound] the “protection against sea lice” value ([4]; T2, 40 days after injection, hexaflumuron, lufenuron about 50 mg/kg, moxidectin 0.2 mg/kg) was “showed protection”, the lice on average ([4]; T3, 70 days after injection, formulated in Apoject 1-Fural, about 50 mg/kg, control group 5.6) was 0.6 and the “good protection against lice until T5, time after injection” value ([4]; lufenuron in Apoject 1-Fural, about 50 mg/kg) was 128 days. For the same compound, the protection following injection ([4]; other active substances, summary of trial) was “good protection for an extended period of time”.
With O=C(NC(=O)c1c(F)cccc1F)Nc1cc(Cl)c(F)c(Cl)c1F [teflubenzuron] the “number of lice compared with untreated control group” value ([1]; oral 10 mg teflubenzuron per kg fish daily for 7 days, at each assessment) was “same number of lice as the untreated control group” and the “protection against new establishments by sea lice” value ([1]; summary statement referring to Example 6) was “do not protect”.
